Among the test systems are KM12 colon; M14 melanoma; MDA-MB-435; MOLT-4 leukemia; NCI-H23 lung; OVCAR-4 ovarian; OVCAR-5 ovarian; OVCAR-8 ovarian; SK-MEL-28 melanoma; SW-620 colon.
Common to all, as to experiment: NCI tumour cell line growth inhibition, 48 h

Molecules are shown by their SMILES. Several values for one entry are separate records, joined by “and”; a condition that tells them apart may be missing. Equal entries are not always repeated.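 1) Cells in 96-well plates. 2) Compound, 48 h, 5 concentrations. 3) Linear interpolation between surrounding doses. 4) Unreached endpoint = highest concentration. GI50 marks 50% less growth. At the TGI there is no net growth.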 Where only a bound is given, the exact number is not on record here.

`CC(=O)OC1[C@H](OC(C)=O)C2=C(C)[C@@H](OC(C)=O)C[C@@]2(C(C)(C)O)[C@@H](OC(C)=O)[C@H]2[C@@]1(C)[C@@H](OC(C)=O)CC(OC(C)=O)[C@]21CO1` (stereo not given in full): the TGI in the experiment with KM12 colon, in the experiment with M14 melanoma, in the experiment on MDA-MB-435, in the experiment with MOLT-4 leukemia, in the experiment with NCI-H23 lung and in the experiment on OVCAR-4 ovarian was above 100 µM throughout. For the same compound, the TGI in the experiment on OVCAR-5 ovarian, in the experiment with OVCAR-8 ovarian, in the experiment on SK-MEL-28 melanoma and in the experiment with SW-620 colon was above 100 µM in each case.
As for `COc1nc2ccc(COc3ccc(C(=O)O)cc3)cc2nc1OC`, the TGI with KM12 colon, in the experiment with M14 melanoma, with MDA-MB-435, in the experiment on MOLT-4 leukemia, in the experiment on NCI-H23 lung and with OVCAR-4 ovarian was above 100 µM each time. Also, the TGI with OVCAR-5 ovarian, in the experiment on OVCAR-8 ovarian, with SK-MEL-28 melanoma and with SW-620 colon was above 100 µM each time.
As for `COc1cc2c(/C=C3/C(=O)Nc4ccc(Cl)cc43)c(Cl)[nH]c2cc1C`, the TGI is 10 µM with KM12 colon; 13.7 µM in the experiment with M14 melanoma; 0.57 µM with MDA-MB-435; 0.814 µM in the experiment on MOLT-4 leukemia; 7.13 µM with NCI-H23 lung; 11.4 µM in the experiment on OVCAR-4 ovarian. For the same compound, the TGI in the experiment on OVCAR-5 ovarian came to 17.1 µM; in the experiment on OVCAR-8 ovarian it was 19.7 µM; with SK-MEL-28 melanoma it was 14.5 µM; in the experiment on SW-620 colon it was 19.7 µM.
Consider `C[C@@H]1CC(=O)C[C@@H]2CC[C@H]3[C@@H]4CC[C@H](OC(=O)c5cccc6cc7ccccc7nc56)[C@H]4CC[C@@H]3[C@H]21`, for which the TGI was found to be 31.5 µM in the experiment on KM12 colon; 31.6 µM in the experiment on M14 melanoma; 35.1 µM in the experiment with MDA-MB-435; 31.7 µM with MOLT-4 leukemia; 30.4 µM in the experiment on NCI-H23 lung; 30.9 µM in the experiment with OVCAR-4 ovarian. The TGI was determined as 34.9 µM with OVCAR-5 ovarian, 38 µM in the experiment on OVCAR-8 ovarian, 93.3 µM with SK-MEL-28 melanoma and 44.2 µM with SW-620 colon.
As for `CC(=O)OCC1OC(n2c(S)c(C#N)c(-c3ccccc3)c(C#N)c2=O)C(OC(C)=O)C(OC(C)=O)C1OC(C)=O` (stereo not given), the GI50 in the experiment on KM12 colon is > 100 µM and 21.8 µM; with M14 melanoma it was > 100 µM and 36.5 µM; with MDA-MB-435, > 100 µM and 17.2 µM; in the experiment on MOLT-4 leukemia, > 100 µM and 23.6 µM; in the experiment on NCI-H23 lung, > 100 µM and 45 µM; with OVCAR-4 ovarian it was > 100 µM and 30.6 µM. For the same compound, the GI50 in the experiment with OVCAR-5 ovarian is > 100 µM and 39.7 µM; in the experiment on OVCAR-8 ovarian, > 100 µM and 16.7 µM; in the experiment with SK-MEL-28 melanoma it was > 100 µM and 25.7 µM; in the experiment on SW-620 colon, > 100 µM and 49.9 µM. The TGI is > 100 µM and 52 µM in the experiment with KM12 colon; above 100 µM with M14 melanoma; > 100 µM and 34.6 µM with MDA-MB-435; > 100 µM and 50.8 µM with MOLT-4 leukemia; above 100 µM with NCI-H23 lung; > 100 µM and 83.3 µM in the experiment on OVCAR-4 ovarian. Also, the TGI in the experiment on OVCAR-5 ovarian is above 100 µM; in the experiment on OVCAR-8 ovarian, > 100 µM and 36.2 µM; in the experiment with SK-MEL-28 melanoma, > 100 µM and 62.8 µM; with SW-620 colon, above 100 µM.
On to `C(=Nc1ccc(-c2nc3ccccc3s2)cc1)c1ccc[nH]1`, for which the TGI is 71.3 µM with KM12 colon; 34.2 µM in the experiment on M14 melanoma; 41 µM in the experiment on MDA-MB-435; 38.8 µM in the experiment with MOLT-4 leukemia; 37 µM in the experiment on NCI-H23 lung; 89.7 µM in the experiment on OVCAR-4 ovarian. Also, the TGI is 51.4 µM in the experiment on OVCAR-5 ovarian, above 100 µM with OVCAR-8 ovarian, 42.5 µM with SK-MEL-28 melanoma and 53.8 µM in the experiment on SW-620 colon.
As for `COc1cc2c(/C=C3/C(=O)N(C)c4ccc(O)cc43)c(Cl)[nH]c2cc1C`, the TGI was determined as 6.64 µM in the experiment with KM12 colon; 13.1 µM in the experiment with M14 melanoma; 0.124 µM with MDA-MB-435; 0.784 µM in the experiment with MOLT-4 leukemia; 3.28 µM with NCI-H23 lung; 21.6 µM with OVCAR-4 ovarian. Also, the TGI in the experiment with OVCAR-5 ovarian was 21.6 µM; in the experiment with OVCAR-8 ovarian, 15 µM; with SK-MEL-28 melanoma, 15.4 µM; in the experiment with SW-620 colon, 21.3 µM.
On to `C[C@]12CC(c3ccccc3O1)C(C(=O)Nc1nc(C34CC5CC(CC(C5)C3)C4)cs1)C(=O)N2` (stereo not given in full), for which the TGI in the experiment with KM12 colon, in the experiment on M14 melanoma, with MDA-MB-435, in the experiment with MOLT-4 leukemia, with NCI-H23 lung and in the experiment on OVCAR-4 ovarian was above 100 µM each time. Further, the TGI in the experiment on OVCAR-5 ovarian, with OVCAR-8 ovarian, in the experiment on SK-MEL-28 melanoma and in the experiment on SW-620 colon was above 100 µM in each case.
As for `Cn1c(=O)c2c(nc3sc4ccccc4c(=O)n32)n(C)c1=O`, the TGI with KM12 colon, in the experiment on M14 melanoma, in the experiment with MDA-MB-435, in the experiment with MOLT-4 leukemia, in the experiment on NCI-H23 lung and in the experiment on OVCAR-4 ovarian was above 100 µM in each case. In addition, the TGI with OVCAR-5 ovarian, with OVCAR-8 ovarian, in the experiment with SK-MEL-28 melanoma and in the experiment with SW-620 colon was above 100 µM each time.
As for `O=C1CN(c2cccc(Cl)c2)C(=O)CN1NCNN1CC(=O)N(c2cccc(Cl)c2)CC1=O`, the TGI with KM12 colon, with M14 melanoma, in the experiment with MDA-MB-435, with MOLT-4 leukemia, in the experiment with NCI-H23 lung and in the experiment on OVCAR-4 ovarian was above 100 µM in each case. Also, the TGI in the experiment with OVCAR-5 ovarian, in the experiment with OVCAR-8 ovarian, in the experiment on SK-MEL-28 melanoma and in the experiment on SW-620 colon was above 100 µM in each case.
For the compound `CC(C)(NC(=O)OCc1ccccc1)C(=O)OC(=O)C(C)(C)NC(=O)OCc1ccccc1`, the TGI in the experiment with KM12 colon, with M14 melanoma, in the experiment with MDA-MB-435, in the experiment with MOLT-4 leukemia, in the experiment with NCI-H23 lung and in the experiment on OVCAR-4 ovarian was above 100 µM throughout. The TGI in the experiment on OVCAR-5 ovarian, in the experiment on OVCAR-8 ovarian, with SK-MEL-28 melanoma and with SW-620 colon was above 100 µM throughout.
Turning to `CCCCOC(=O)C1CC[C@H]2[C@@H]3CCc4cc(OC(=O)c5cccc6c(=O)c7ccccc7[nH]c56)ccc4[C@H]3CC[C@]12C` (stereo not given in full), the TGI in the experiment with KM12 colon turned out to be 17 µM; in the experiment with M14 melanoma, 20.5 µM; in the experiment on MDA-MB-435 it was 18 µM; in the experiment with MOLT-4 leukemia, 21.7 µM; in the experiment on NCI-H23 lung, 16.6 µM; in the experiment on OVCAR-4 ovarian, 14.5 µM. For the same compound, the TGI with OVCAR-5 ovarian was found to be 19.8 µM; with OVCAR-8 ovarian it was 21.3 µM; in the experiment with SK-MEL-28 melanoma, 21.2 µM; with SW-620 colon, 30.5 µM.

The values are drawn from PubChem BioAssay (NCI).
